What was measured:
[1] = Cytotoxicity against human RPE cells measured upto 50 uM; format: toxicity, cell-based
[2] = Cytotoxicity against human RPE cells assessed as cell viability at 50 uM; format: toxicity, cell-based

With `O=C(O)c1cc(F)cc(NCc2ccc(-c3ccccc3C(F)(F)F)cc2)c1` as the compound, how does the Activity [1] read?
Its Activity is “Non-Toxic”.

For `O=C(O)c1cc(F)cc(NCc2ccc(-c3ccccc3)cc2)c1`, which Activity [1] is on record?
The Activity was “Non-Toxic”.

Which Activity [1] does the source give for `O=C(O)c1cc(F)cc(NCc2ccc(-c3ccc(C(F)(F)F)cc3)cc2)c1` here?
Its Activity is “Non-Toxic”.

With `O=C(O)c1cc(F)cc(NCc2cn(-c3ccc(C(F)(F)F)cc3)nn2)c1` as the compound, how does the Activity [1] read?
The Activity was “Non-Toxic”.

What about the Activity [2] of the same compound?
Its Activity is “Toxic”.
